Values of other authors, collected in US12636273B2, “Compositions for pathogenesis-directed therapy and treatments of skin diseases and disorders” (YALE UNIVERSITY, priority 2019, dated 2026).

Tested on: CHILD syndrome skin lesions
Details: topical application

In the case of CC(C)CCC[C@@H](C)[C@H]1CC[C@H]2[C@@H]3CC=C4C[C@@H](O)CC[C@]4(C)[C@H]3CC[C@]12C [cholesterol], the “effect on skin lesions / phenotype” value is given as “did not correct the phenotype”.
